Active and inactive are the calls of the source. No cut-off for these calls is given here.

The target in data set [1] is T1, Nucleotide-binding oligomerization domain-containing protein 1 (Mus musculus) (UniProt Q8BHB0).
T1 sequence (whole entry): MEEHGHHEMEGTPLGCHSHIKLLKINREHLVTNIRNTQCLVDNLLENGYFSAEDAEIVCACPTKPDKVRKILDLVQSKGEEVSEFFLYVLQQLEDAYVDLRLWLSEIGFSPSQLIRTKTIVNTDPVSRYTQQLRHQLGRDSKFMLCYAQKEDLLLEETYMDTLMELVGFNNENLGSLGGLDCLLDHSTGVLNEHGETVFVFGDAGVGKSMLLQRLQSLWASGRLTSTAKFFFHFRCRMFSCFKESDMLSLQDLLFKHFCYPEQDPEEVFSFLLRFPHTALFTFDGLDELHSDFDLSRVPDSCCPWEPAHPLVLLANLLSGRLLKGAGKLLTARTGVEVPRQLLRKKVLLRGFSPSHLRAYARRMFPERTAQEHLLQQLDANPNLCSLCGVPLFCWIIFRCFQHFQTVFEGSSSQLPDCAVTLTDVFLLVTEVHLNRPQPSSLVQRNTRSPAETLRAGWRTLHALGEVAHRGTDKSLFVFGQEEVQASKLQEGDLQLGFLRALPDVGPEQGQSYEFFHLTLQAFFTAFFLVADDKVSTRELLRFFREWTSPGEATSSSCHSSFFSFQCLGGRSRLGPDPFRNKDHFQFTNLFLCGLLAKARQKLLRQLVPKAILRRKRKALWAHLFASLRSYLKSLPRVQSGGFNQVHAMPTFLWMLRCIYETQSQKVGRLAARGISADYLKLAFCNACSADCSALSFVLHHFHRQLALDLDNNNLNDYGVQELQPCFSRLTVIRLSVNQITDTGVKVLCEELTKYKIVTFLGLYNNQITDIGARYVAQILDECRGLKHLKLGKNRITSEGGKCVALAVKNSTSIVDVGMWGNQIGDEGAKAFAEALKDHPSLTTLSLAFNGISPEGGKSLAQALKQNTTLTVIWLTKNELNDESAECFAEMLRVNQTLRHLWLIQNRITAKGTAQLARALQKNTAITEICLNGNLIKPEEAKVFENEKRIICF
Description: Antagonist activity at NOD1 in mouse BMDM cells assessed as decrease in phosphorylated p65 level at 0.1 to 1 uM incubated for 1 hr followed by C12-iE-DAP stimulation for 30 mins by Western blot analysis. It counts as cell-based. Conditions: filed as antagonist, dose 0.1-1 µM, time 1.5 hrs.

Data set [2] is described as follows: MRT (infinity) in C57BL/6 mouse at 2 mg/kg, iv by LC-MS/MS analysis. It counts as ADME, organism-based. Conditions: in vivo.
Data set [3] is described as follows: AUC (infinity) in C57BL/6 mouse at 20 mg/kg, po by LC-MS/MS analysis. It counts as ADME, organism-based. Conditions: in vivo.
Data set [4] can be described thus: Half life in C57BL/6 mouse at 20 mg/kg, po by LC-MS/MS analysis. It counts as ADME, organism-based. As to conditions: in vivo.
Data set [5] can be described thus: Anti-inflammatory activity in mouse BMDM cells assessed as decrease in TNF-alpha mRNA level at 0.1 uM pretreated for 1 hr followed by C12-iE-DAP stimulation for 2 hrs by RT-qPCR analysis relative to control. The arrangement: scale not given: the % may be the effect or the level left. As to conditions: time 3 hrs. It counts as functional.
A further data set has as its system BMDM. Description: Anti-inflammatory activity in mouse BMDM cells assessed as decrease in TNF-alpha mRNA level at 1 to 5 uM pretreated for 1 hr followed by infection with Helicobacter pylori for 2 hrs by RT-qPCR analysis. Format: functional, cell-based. As to conditions: dose 1-5 µM, time 3.0 hrs.
Data set [6] in a line: Oral bioavailability in C57BL/6 mouse at 20 mg/kg by LC-MS/MS analysis. Format: ADME, organism-based. As to conditions: in vivo.
Data set [7] in a line: Half life in C57BL/6 mouse at 2 mg/kg, iv by LC-MS/MS analysis. Format: ADME, organism-based. Conditions: in vivo.
Data set [8] addresses T2, Nucleotide-binding oligomerization domain-containing protein 1 (Homo sapiens) (UniProt Q9Y239).
T2 sequence (whole entry): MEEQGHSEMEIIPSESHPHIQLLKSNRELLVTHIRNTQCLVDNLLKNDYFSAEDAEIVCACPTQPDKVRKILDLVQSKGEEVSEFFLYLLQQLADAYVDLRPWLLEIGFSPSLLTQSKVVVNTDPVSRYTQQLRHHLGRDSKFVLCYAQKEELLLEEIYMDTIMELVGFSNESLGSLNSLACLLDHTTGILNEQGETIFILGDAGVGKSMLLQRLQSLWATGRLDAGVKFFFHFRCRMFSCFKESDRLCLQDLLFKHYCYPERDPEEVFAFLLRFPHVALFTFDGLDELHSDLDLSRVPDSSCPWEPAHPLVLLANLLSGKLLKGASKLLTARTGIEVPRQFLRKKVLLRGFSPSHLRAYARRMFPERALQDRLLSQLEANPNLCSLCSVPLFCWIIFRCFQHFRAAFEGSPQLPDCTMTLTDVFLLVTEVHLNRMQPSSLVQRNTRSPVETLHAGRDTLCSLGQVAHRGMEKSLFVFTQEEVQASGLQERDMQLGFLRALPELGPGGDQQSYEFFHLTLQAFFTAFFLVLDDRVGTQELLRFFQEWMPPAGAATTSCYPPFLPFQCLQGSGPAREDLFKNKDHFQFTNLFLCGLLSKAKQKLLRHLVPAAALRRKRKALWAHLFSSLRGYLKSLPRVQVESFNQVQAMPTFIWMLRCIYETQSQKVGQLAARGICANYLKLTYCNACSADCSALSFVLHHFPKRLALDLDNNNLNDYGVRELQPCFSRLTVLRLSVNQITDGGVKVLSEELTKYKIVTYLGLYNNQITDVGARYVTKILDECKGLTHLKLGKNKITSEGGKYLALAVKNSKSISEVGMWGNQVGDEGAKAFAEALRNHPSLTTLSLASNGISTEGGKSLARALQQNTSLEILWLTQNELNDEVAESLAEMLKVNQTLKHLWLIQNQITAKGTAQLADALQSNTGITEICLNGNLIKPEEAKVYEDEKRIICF
In words: Antagonist activity at NOD1 in human THP-1 cells assessed as decrease in phosphorylated p38 level at 0.1 to 1 uM incubated for 1 hr followed by C12-iE-DAP stimulation for 30 mins by Western blot analysis. Format: cell-based. Conditions: filed as antagonist, dose 0.1-1 µM, time 1.5 hrs.

Data set [9] relates to Mus musculus. Description: Anti-inflammatory activity in C57BL/6 mouse model of Helicobacter pylori-induced gastric inflammation assessed as reduction in IL-6 level in gastric tissue at 50 mg/kg, po pretreated with compound upto 24 hrs followed by infection of Helicobacter pylori measured upto 72 hrs. It counts as functional, organism-based. As to conditions: time <= 96.0 hrs.

The nature of data set [10]: Cytotoxicity against HEK-Blue hNOD1 cells by SRB assay. Format: toxicity, cell-based. Conditions: human.
Data set [11] has as its target T3, Nucleotide-binding oligomerization domain-containing protein 1 (Homo sapiens, UniProt Q9Y239).
T3 sequence (Q9Y239 whole entry): T2 sequence (whole entry)
In words: Antagonist activity at human NOD1 expressed in HEK293 cells assessed as decrease in NF-kappaB activation. Format: cell-based.

A short description of data set [12]: Clearance in C57BL/6 mouse at 2 mg/kg, iv by LC-MS/MS analysis. It counts as ADME, organism-based. As to conditions: in vivo.
Data set [13] is described as follows: Cytotoxicity against HEK-Blue mNOD1 cells by SRB assay. It counts as toxicity, cell-based. Conditions: human.
Data set [14] concerns Mus musculus. In words: Anti-inflammatory activity in C57BL/6 mouse model of Helicobacter pylori-induced gastric inflammation assessed as inhibition in gastric keratinocyte chemoattractant level pretreated orally with compound upto 24 hrs followed by infection of Helicobacter pylori measured upto 72 hrs. It counts as functional, organism-based. As to conditions: dose 12.5-50 mg/kg, route po, time <= 96.0 hrs.

As to `CS(=O)(=O)c1ccc2nc(Cl)n(-c3ccc(Cl)c(NS(=O)(=O)c4c(F)cccc4F)c3)c(=O)c2c1`, the inhibition result in [1] and in data set [8] was “Active” in each case. This compound also registered an MRT inf in data set [2] of 2.76 min. The compound further gave an AUC(0-inf) in [3] of 35.9 ng·h/mL. In data set [4], the half-life is 189 min. For the same compound, the Activity is around 100% in data set [5], “Non-toxic” in data set [10] and “Non-toxic” in data set [13]. Further, the result with BMDM and with Mus musculus [9] was Active. The compound also displayed a bioavailability in [6] of 4.77%. This compound registered a t1/2 in data set [7] of 3.9 min. In [11], the IC50 stood at 0.8 nM. In addition, the clearance in [12] amounted to 474 mL/min/kg. In addition, the inhibition entry in the data set on Mus musculus [14] is given as “Dose-dependent-effect; Exhibited Superior Efficacy Compared To Compound C”.

The values above are taken from ChEMBL document CHEMBL6074678, “Selectively Antagonizing the NOD1-Mediated Inflammatory Signaling Pathway Mitigates the Gastric Inflammation Induced by Helicobacter pylori Infection” (J Med Chem, 2024).
